Measurements from the NIST ThermoML archive (doi:10.1021/acs.jced.8b00451).
Numbers after ± are expanded uncertainties.

Details: Liquid, Ebulliometric method (Recirculating still)

O=Cc1ccco1 [2-furaldehyde]
vapor or sublimation pressure (394.7 K): 30 ± 0.2 kPa

CC1CCC(=O)O1 (configuration not stated) [γ-valerolactone]
vapor or sublimation pressure (434 K): 29.9 ± 0.2 kPa | vapor or sublimation pressure (434.1 K): 30 ± 0.2 kPa | vapor or sublimation pressure (444.3 K): 40.6 ± 0.2 kPa | vapor or sublimation pressure (459.3 K): 61.7 ± 0.2 kPa | vapor or sublimation pressure (469.3 K): 80 ± 0.2 kPa | vapor or sublimation pressure (479.4 K): 102.6 ± 0.3 kPa
